Read-outs that look alike come from different tables or passages of the source.
Key:
[1] = Pharmacokinetics after oral administration of tablets in beagle dogs; type: in vivo; design: AUC0-24, mean (RSD) / F / AUC(0-t): dose or concentration left out as unconfirmed; conditions: pentagastrin pretreatment
Experimental: A series of in vivo experiments were conducted to evaluate the potential benefit of the solid dispersion approach relative to conventional formulations, as well as to optimize the solid dispersion by identifying the most beneficial polymer type and relative polymer concentration within the dispersion.
Pentagastrin is a synthetic polypeptide that stimulates the secretion of gastric acid, pepsin, and intrinsic factor. […]

[2] = Aqueous solubility screening of ledipasvir in the presence of polymers; type: physicochemical
Experimental: Solubility screening experiments were performed for ledipasvir in the presence of a variety of polymers, including hydroxypropyl cellulose, hypromellose, povidone and copovidone. […] Hypromellose, povidone, and copovidone increased the solubility of ledipasvir. […] Thus, in one embodiment, the polymer is selected from hypromellose, povidone, and copovidone.

[3] = Solubility of ledipasvir in spray dry feed solvents; type: physicochemical; conditions: organic solvent or mixture
Experimental: The feed solution was initially evaluated for appropriate solvent with regard to solubility, stability, and viscosity. […] Ethanolic and DCM-based feed stocks were assessed for preparation ease and spray dried at a range of inlet and outlet temperatures to assess the robustness of the spray dry process. Both solvents gave rapid dissolution of ledipasvir and copovidone.

HCV [4] = test: Antiviral response for dose selection of ledipasvir in HCV infected subjects; type: in vivo, Hepatitis C virus
Experimental: The maximum median HCV RNA log 10 reduction was 3 or greater for all cohorts dosed with >3 mg of ledipasvir. […] Therefore, 30 mg and 90 mg of ledipasvir were selected as the dose for the formulations described herein.

HCV [5] = test: Breakthrough (BT) rate of ledipasvir in combination with other therapeutic agents; type: in vivo, Hepatitis C virus
Experimental: Therefore, the 90 mg dose of ledipasvir may confer a greater antiviral coverage that prevents viral breakthrough.

[6] = conventional formulation; for Clast, mean: 30 mg single dose
clinical = conditions: in vivo, 30 mg; for half-life: t1/2, conventional formulation, median; for AUC(0-inf): AUCinf; for AUC(0-inf) / AUC(0-t) / Cmax / Vd/F: conventional formulation; for AUC(0-t): AUClast; for Vd/F: Vz/F
[7] = Chemical stability in the ethanolic feed solution
[8] = 30 mg, high-fat meal versus fasted
[9] = po, Geometric Least Squares Mean (GLSM), fasted
[10] = po, Geometric Least Squares Mean (GLSM), fed
[11] = po, mean, 30 mg single dose, fasted
[12] = po, mean, 30 mg single dose, fed (high-fat meal)

## COC(=O)N[C@H](C(=O)N1CC2(CC2)C[C@H]1c1ncc(-c2ccc3c(c2)C(F)(F)c2cc(-c4ccc5nc([C@@H]6[C@H]7CC[C@H](C7)N6C(=O)[C@@H](NC(=O)OC)C(C)C)[nH]c5c4)ccc2-3)[nH]1)C(C)C [Amorphous Free base]
[1]; dog, in vivo, read-out: AUC0-24, mean (RSD)
  AUC(0-t): 8.03 µM·h
[1]; dog, in vivo, read-out: Cmax, mean (RSD)
  Cmax: 743 nM
[1]
  F: 71%

## COC(=O)N[C@H](C(=O)N1CC2(CC2)C[C@H]1c1ncc(-c2ccc3c(c2)C(F)(F)c2cc(-c4ccc5nc([C@@H]6[C@H]7CC[C@H](C7)N6C(=O)[C@@H](NC(=O)OC)C(C)C)[nH]c5c4)ccc2-3)[nH]1)C(C)C.O=C(O)C(O)C(O)C(=O)O [Crystalline D-tartrate]
[1]
  AUC0-24, mean (RSD): 7623 (44) nM * hr
  F: 67%

## COC(=O)N[C@H](C(=O)N1CC2(CC2)C[C@H]1c1ncc(-c2ccc3c(c2)C(F)(F)c2cc(-c4ccc5nc([C@@H]6[C@H]7CC[C@H](C7)N6C(=O)[C@@H](NC(=O)OC)C(C)C)[nH]c5c4)ccc2-3)[nH]1)C(C)C [Ledipasvir, (1-{3-[6-(9,9-difluoro-7-{2-[5-(2-methoxycarbonylamino-3-methyl-butyryl)-5-aza-spiro[2.4]hept-6-yl]-3H-imidazol-4-yl}-9H-fluoren-2-yl)-1H-benzoimidazol-2-yl]-2-aza-bicyclo[2.2.1]heptane-2-carbonyl}-2-methyl-propyl)-carbamic acid methyl ester]
[2]; pH 5, 0.1% w/w copovidone
  increase of aqueous solubility of ledipasvir: 10 fold
[2]; pH 5, 0.1% w/w hypromellose
  increase of aqueous solubility of ledipasvir: 3 fold
[2]; pH 5, 0.1% w/w povidone
  increase of aqueous solubility of ledipasvir: 4 fold
[3]; dichloromethane (DCM)
  solubility: > 500 mg/mL
[3]; ethanol
  solubility: > 500 mg/mL
[3]; methanol
  solubility: > 500 mg/mL
HCV [4]; all cohorts dosed with >3 mg of ledipasvir
  maximum median HCV RNA log 10 reduction: ≥ 3 log 10
HCV [4]; exposures after 30 mg dose, genotype 1a HCV infected subjects
  fraction of maximal antiviral response (Emax PK/PD model): > 95%
HCV [5]; 30 mg ledipasvir in combination with other therapeutic agents, 11/33
  breakthrough (BT) rate: 33%
HCV [5]; 90 mg ledipasvir in combination with other therapeutic agents, 9/74
  breakthrough (BT) rate: 12%
[6]; fasted
  Clast, mean: 6.8 ng/mL
[6]; fed (high-fat meal)
  Clast, mean: 3.1 ng/mL
[6]; [8]
  decrease in mean AUCinf: approximately 45%
  decrease in mean AUClast: approximately 45%
  decrease in mean Cmax: approximately 45%
clinical; 30 mg single dose, fasted
  half-life: 39.8 h
clinical; 30 mg single dose, fed (high-fat meal)
  half-life: 36.8 h
clinical; po
  Tmax: 6 h
clinical; [9]
  AUC(0-inf): 2060 ng·h/mL
  AUC(0-t): 1720 ng·h/mL
  Cmax: 65.3 ng/mL
clinical; [10]
  AUC(0-inf): 1140 ng·h/mL
  AUC(0-t): 978 ng·h/mL
  Cmax: 35.9 ng/mL
clinical; [11]
  AUC(0-inf): 2420 ng·h/mL
  AUC(0-t): 1990 ng·h/mL
  Cmax: 73.1 ng/mL
  Vd/F: 877 L
clinical; [12]
  AUC(0-inf): 1180 ng·h/mL
  AUC(0-t): 996 ng·h/mL
  Cmax: 36.5 ng/mL
  Vd/F: 1390 L
[7]
  chemical stability in the ethanolic feed solution: good chemical stability

Source: patent publication US20140212487A1, “SOLID DISPERSION FORMULATION OF AN ANTIVIRAL COMPOUND” (priority 2013, published 2014)
